Experimental data taken from patent US20060264439A1, “Inhibitors of polo-like kinase-1” (SuperGen, Inc., priority 2005, published 2006).

Target: T1, Plk-1 (Homo sapiens, UniProt P53350)
T1 construct: purchased Cyclex
Test: ELISA-based Polo-like Kinase-1 activity assay (Cyclex)
Format: biochemical
Conditions: compound at 10 uM, 10 mU purified Plk-1, 50 uM ATP, 30 minutes at 30° C.
Experimental: An ELISA-based Polo-like Kinase-1 activity assay (Cyclex, Nagano Japan) was used to confirm the Plk-1 inhibitory activity of the illustrative compound of the invention having the structure shown below. [drawing 39]
Briefly, 10 mU of purified Plk-1 (Cyclex) was incubated with the compound of interest in triplicate wells of a substrate-coated 96-well plate, along with 50 uM ATP and kinase buffer, for 30 minutes at 30° C. Wells were washed and probed with the anti-phospho-threonine antibody, incubated for 30 minutes at room temperature, then washed and probed again with an HRP-Anti Rabbit IgG. HRP substrate was added and the extent of phosphorylation was measured using a dual-wavelength spectrophotometer. At a concentration of 10 uM, compound (IB-10) inhibited Plk-1 activity in this assay by greater than 60%.
An ELISA-based Polo-like Kinase-1 activity assay (Cyclex, Nagano Japan) was used to confirm the Plk-1 inhibitory activity of the illustrative compound of the invention having the structure shown below (Compound 18, Table 1). [drawing 40]
Briefly, 10 mU of purified Plk-1 (Cyclex) was incubated with the compound in triplicate wells of a substrate-coated 96-well plate, along with 50 uM ATP and kinase buffer, for 30 minutes at 30° C. […] HRP substrate was added and the extent of phosphorylation was measured using a dual-wavelength spectrophotometer.

T1 sequence (P53350 whole entry): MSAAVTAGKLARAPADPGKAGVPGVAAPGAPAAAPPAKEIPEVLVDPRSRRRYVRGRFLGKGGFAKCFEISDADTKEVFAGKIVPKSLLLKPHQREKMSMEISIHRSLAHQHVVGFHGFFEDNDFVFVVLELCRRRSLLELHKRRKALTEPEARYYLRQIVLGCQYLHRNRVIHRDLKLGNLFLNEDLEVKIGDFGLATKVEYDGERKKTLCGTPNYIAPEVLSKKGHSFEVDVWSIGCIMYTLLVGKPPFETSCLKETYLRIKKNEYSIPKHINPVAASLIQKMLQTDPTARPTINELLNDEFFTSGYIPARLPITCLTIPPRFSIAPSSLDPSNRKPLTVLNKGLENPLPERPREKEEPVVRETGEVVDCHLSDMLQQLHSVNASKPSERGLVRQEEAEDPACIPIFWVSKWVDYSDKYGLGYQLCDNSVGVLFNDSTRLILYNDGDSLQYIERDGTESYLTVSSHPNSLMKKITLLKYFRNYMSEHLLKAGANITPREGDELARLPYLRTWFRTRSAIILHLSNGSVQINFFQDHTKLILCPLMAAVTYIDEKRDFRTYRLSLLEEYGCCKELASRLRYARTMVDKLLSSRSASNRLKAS

COc1cc2nncc(Nc3ccc(S(=O)(=O)NC(C)=O)cc3)c2cc1OC [Compound 18, N-Acetyl-4-(6,7-dimethoxy-cinnolin-4-ylamino)-benzenesulfonamide]
Plk-1 activity reduced to % of untreated controls (remaining activity): 88%

NC(=O)c1nnc2cc(Cl)c(F)cc2c1/N=C/c1ccc([N+](=O)[O-])cc1 [IB-10, (E)-4-(4-nitrobenzylideneamino)-7-chloro-6-fluorocinnoline-3-carboxamide]
inhibition at 10 µM (read-out: inhibited Plk-1 activity): > 60%
